# Patent publication US20230312639A1, “GPER PROTEOLYTIC TARGETING CHIMERAS” (University of Iowa Research Foundation, priority 2020, published 2023)
# Legend:
# Format in all cases: cell-based
# [1] = target: T1, HiBiT-ERα (Homo sapiens, UniProt P03372); test: Nano-BiT binary luminescence complementation, transfected HEK-293 cells, total receptor
# T1 sequence (P03372 1-595): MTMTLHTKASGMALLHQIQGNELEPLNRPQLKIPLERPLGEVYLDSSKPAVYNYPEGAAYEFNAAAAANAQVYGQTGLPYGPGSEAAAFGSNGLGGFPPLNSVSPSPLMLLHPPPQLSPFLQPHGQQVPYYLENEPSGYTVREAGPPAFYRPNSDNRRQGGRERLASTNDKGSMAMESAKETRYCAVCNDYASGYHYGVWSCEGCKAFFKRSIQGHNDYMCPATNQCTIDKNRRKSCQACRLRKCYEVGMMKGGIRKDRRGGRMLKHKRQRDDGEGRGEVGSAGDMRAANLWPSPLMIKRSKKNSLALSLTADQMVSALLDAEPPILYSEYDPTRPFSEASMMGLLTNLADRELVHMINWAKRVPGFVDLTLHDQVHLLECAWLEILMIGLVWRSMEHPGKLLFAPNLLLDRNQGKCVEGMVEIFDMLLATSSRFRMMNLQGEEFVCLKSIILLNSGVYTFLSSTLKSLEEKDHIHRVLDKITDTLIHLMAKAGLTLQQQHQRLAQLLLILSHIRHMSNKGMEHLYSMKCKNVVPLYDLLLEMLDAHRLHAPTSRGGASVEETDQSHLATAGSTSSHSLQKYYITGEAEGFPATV
# Procedure: FIG. 26. […] HEK-293 cells (ERα^-, GPER^-) were transiently transfected with 50 ng HiBiT-GPER or HiBiT-ER plus pcDNA3.1(+) zeo carrier plasmid. […] Results shown represent the mean ± S.E. of three independent experiments.
# FIG. 28. […] Total receptor was then measured by binary luminescence complementation in detergent-permeabilized cells. […] Total receptor was then quantified by binary luminescence complementation. Representative luminescence data and mean values and SDs derived from three independent experiments are shown.
# Transient transfections and binary Nano-Bit ™ luminescence assays. Total HiBiT-tagged GPER or ER estrogen receptors were detected in detergent-permeabilized cells by binary luminescence complementation with recombinant LgBit and substrate using the Nano-Glo HiBiT Extracellular Detection system kit (Promega Corporation, Madison, Wl). In brief, HEK293 cells (0.75 × 10^6) were seeded in 35 mm tissue culture dishes and 24 hours later were transiently transfected with 50 ng of HiBiT-GPER or HiBiT-ERa and 950 ng of pcDNA3.1(+) zeo carrier plasmid using Lipofectamine 2000 (Invitrogen, Carlsbad, CA). The next day transfected cells were harvested by trypsinization and seeded at a density of 10^4 cells/well in 96-well poly-L-lysine-coated Greiner white-bottomed microplates. On the following day, cell culture media was aspirated and replaced with 100 µL of serum-free PRF-DF12 containing E2-PROTAC, partial-PROTAC, or vehicle at various concentrations and for indicated time intervals at 37° C. […] Following treatment, total HiBiT-tagged receptor was measured in cells which were permeabilized in 0.05% Triton X-100 using HiBiT complementation reagent consisting of LgBiT protein and Nano-Gio® HiBiT substrate. Luminescence was measured using the Infinite 200 PRO multimode microplate reader from Tecan (Raleigh, NC) and reported as Relative Luminescent Units (RLU). All samples were measured in triplicate and expressed as the mean value plus or minus standard deviation.
# [2] = target: T2, HA-b1AR (Homo sapiens, UniProt P08588); test: Immunofluorescence with HA antibody, stably transfected HEK293 cells; conditions: 100 µM, 1 hour
# T2 construct: expressed in transfected cells
# T2 sequence (P08588 whole entry): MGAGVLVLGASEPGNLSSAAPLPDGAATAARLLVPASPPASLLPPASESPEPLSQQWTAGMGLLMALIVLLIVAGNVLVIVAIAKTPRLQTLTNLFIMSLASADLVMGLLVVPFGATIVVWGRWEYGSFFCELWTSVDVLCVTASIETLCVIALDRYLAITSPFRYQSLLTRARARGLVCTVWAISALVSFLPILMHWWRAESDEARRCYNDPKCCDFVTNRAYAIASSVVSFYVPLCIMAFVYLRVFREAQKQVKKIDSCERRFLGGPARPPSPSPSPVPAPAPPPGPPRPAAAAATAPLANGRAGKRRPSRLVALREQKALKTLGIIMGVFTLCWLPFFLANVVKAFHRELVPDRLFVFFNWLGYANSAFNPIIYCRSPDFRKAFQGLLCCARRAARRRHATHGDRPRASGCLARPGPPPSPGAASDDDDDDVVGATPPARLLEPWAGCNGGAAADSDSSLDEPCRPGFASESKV
# [3] = target: T3, native GPER (Homo sapiens, UniProt Q99527); test: Surface GPER immunostaining in human breast cancer cells (SKBR3, HCC-1806)
# T3 construct: Similar results were obtained for native GPER in her2+ and TNBC breast cancer cells; endogenous in cells; host or cells: SKBR3 and HCC-1806 human breast cancer cells
# T3 sequence (Q99527 whole entry): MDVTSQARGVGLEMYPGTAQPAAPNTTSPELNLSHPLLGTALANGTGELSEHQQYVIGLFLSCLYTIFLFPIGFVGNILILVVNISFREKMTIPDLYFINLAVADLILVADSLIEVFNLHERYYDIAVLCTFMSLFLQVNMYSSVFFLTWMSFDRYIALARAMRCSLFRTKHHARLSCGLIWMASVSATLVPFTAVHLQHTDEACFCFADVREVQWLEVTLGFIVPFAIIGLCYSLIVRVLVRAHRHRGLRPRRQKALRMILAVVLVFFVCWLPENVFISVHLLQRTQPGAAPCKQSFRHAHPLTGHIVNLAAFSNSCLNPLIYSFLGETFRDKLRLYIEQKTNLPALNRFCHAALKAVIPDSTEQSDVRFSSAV
# Procedure: FIG. 4. PROTAC prototype Ul-EP001 reduces surface GPER. Similar results were obtained for native GPER in her2+ and TNBC breast cancer cells.
# FIG. 18. […] Structure (A) and NMR spectrum (B) of UI-EP001. Human SKBR3 (Her2+) and HCC-1806 (TNBC) breast cancer cells were exposed to vehicle (untreated) or 100 µM of partial-PROTAC or E2p-PROTAC, Ul-EP001 for 16 hours. Cells were immunostained with GPER antibodies for 30 minutes and surface GPER was detected using goat anti-rabbit Alexa 594 IgG (red). Nuclei were countertained with DAPI (blue). (C).HA-GPER or HA-β1AR cells were treated with Ul-EP001 for the indicated times and immunoblotted with HA antibody (D) or immunostained for surface receptor (E). Total corrected red fluorescence (red) (TCRF) of treated and untreated HA-GPER or HA-β1AR cells was measured by subtracting cell background. […] Data not shown, no difference in surface GPER expression is measured in cells similarly treated with free 17β-E2.
# To screen GPER-PROTACs, a GPER binding assay that measures a high-affinity (Kd= 2.7 nm), limited capacity, displaceable, single binding site specific for estrogens in plasma membranes of human SKBR3 breast cancer cells that express GPER but lack nuclear ER may be used (Thomas et al., 2005). GPER undergoes an uncommon mechanism of endocyosis that requires neither receptor phosphorylation, interaction with β--arrestin nor lysosomal activity. […]
structure (smiles),measurement,setting,value
Cc1ncsc1-c1ccc(CNC(=O)C2CC(O)CN2C(=O)C(NC(=O)COCCOCCOCCOCC(=O)OC2CCC3C4CCc5cc(O)ccc5C4CCC23C)C(C)(C)C)cc1 (stereo not shown) [UI-EP001],reduction in expression level of recombinant ER,"[1]; 100 µM, as early as 1 h",50%
same,change of HiBiT-ERα,"[1]; increasing doses, 1 hour, partial PROTAC 100 µM",dose-dependent decrease
same,off-target degradation of HA-b1AR,[2],without detectable off-target degradation
same,expression of native GPER,[3],downmodulates the expression of native GPER
